The supplement of paper PMC10307832

Experiments:
Assay in all cases: relative viability (nuclei count vs DMSO), 5 days (fraction); higher = more cells survive
MLN4924 + Navitoclax = compound: NS(=O)(=O)OC[C@@H]1C[C@@H](n2ccc3c(N[C@H]4CCc5ccccc54)ncnc32)C[C@@H]1O [MLN4924] + CC1(C)CCC(c2ccc(Cl)cc2)=C(CN2CCN(c3ccc(C(=O)NS(=O)(=O)c4ccc(N[C@H](CCN5CCOCC5)CSc5ccccc5)c(S(=O)(=O)C(F)(F)F)c4)cc3)CC2)C1 [Navitoclax] (partner 0.5 µM)
How it was run: (§1)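 Each reported value is a median over duplicate plates. It expresses relative viability: treated-well nuclei count divided by vehicle-well nuclei count. Lung cancer cell lines in 1536-well plates were dosed by pin tool a day after seeding, alone with one drug or with a fixed anchor-drug dose plus five library-drug doses (not always all listed) in √10 steps, and nuclei were counted after 5 days.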

MLN4924 + AZD7762 = compound: NS(=O)(=O)OC[C@@H]1C[C@@H](n2ccc3c(N[C@H]4CCc5ccccc54)ncnc32)C[C@@H]1O [MLN4924] + NC(=O)Nc1cc(-c2cccc(F)c2)sc1C(=O)N[C@H]1CCCNC1 [AZD7762] (partner 0.2 µM)
How it was run: as §1

[1] = compound: C1CC(C1)(C(=O)O)C(=O)O.[NH2-].[NH2-].[Pt+2] [Carboplatin] + CC(=O)c1c(C)c2cnc(Nc3ccc(N4CCNCC4)cn3)nc2n(C2CCCC2)c1=O [Palbociclib] (partner 0.5 µM)
How it was run: as §1

GSK126 + Tozasertib = compound: CC[C@H](C)N1C=C(C2=C(C=C(C=C21)C3=CN=C(C=C3)N4CCNCC4)C(=O)NCC5=C(C=C(NC5=O)C)C)C [GSK126] + Cc1cc(Nc2cc(N3CCN(C)CC3)nc(Sc3ccc(NC(=O)C4CC4)cc3)n2)n[nH]1 [Tozasertib] (partner 0.1 µM)
How it was run: as §1

Row | Cell Line | relative viability (MLN4924 + Navitoclax; first compound 0.04 µM) | relative viability (MLN4924 + Navitoclax; first compound 0.1265 µM) | relative viability (MLN4924 + Navitoclax; first compound 0.4 µM) | relative viability (MLN4924 + Navitoclax; first compound 1.265 µM) | relative viability (MLN4924 + Navitoclax; first compound 4 µM) | relative viability (MLN4924 + AZD7762; first compound 0.04 µM) | relative viability (MLN4924 + AZD7762; first compound 0.1265 µM) | relative viability (MLN4924 + AZD7762; first compound 0.4 µM) | relative viability (MLN4924 + AZD7762; first compound 1.265 µM) | relative viability (MLN4924 + AZD7762; first compound 4 µM) | relative viability ([1]; first compound 0.08 µM) | relative viability ([1]; first compound 0.253 µM) | relative viability ([1]; first compound 0.8 µM) | relative viability ([1]; first compound 2.53 µM) | relative viability ([1]; first compound 8 µM) | relative viability (GSK126 + Tozasertib; first compound 0.08 µM) | relative viability (GSK126 + Tozasertib; first compound 0.253 µM) | relative viability (GSK126 + Tozasertib; first compound 0.8 µM) | relative viability (GSK126 + Tozasertib; first compound 2.53 µM) | relative viability (GSK126 + Tozasertib; first compound 8 µM)
1 | EKVX | 0.861 | 0.816 | 0.352 | 0.173 | 0.148 | 0.854 | 0.784 | 0.674 | 0.314 | 0.232 | 0.364 | 0.513 | 0.385 | 0.354 | 0.341 | 0.411 | 0.443 | 0.4 | 0.355 | 0.326
2 | EMC-BAC-2 | 1.02 | 0.486 | 0.271 | 0.16 | 0.159 | 1.06 | 0.869 | 0.377 | 0.224 | 0.288 | 0.533 | 0.516 | 0.525 | 0.536 | 0.469 | 0.306 | 0.266 | 0.154 | 0.238 | 0.249
3 | EPLC-272H | 0.94 | 1.02 | 0.104 | 0.12 | 0.141 | 0.27 | 0.239 | 0.0814 | 0.133 | 0.106 | 0.352 | 0.325 | 0.32 | 0.327 | 0.359 | 0.316 | 0.306 | 0.211 | 0.306 | 0.189
4 | H3255 | 0.592 | 0.434 | 0.226 | 0.131 | 0.175 | 0.784 | 0.797 | 0.457 | 0.267 | 0.33 | 0.303 | 0.303 | 0.308 | 0.275 | 0.306 | 0.704 | 0.65 | 0.74 | 0.614 | 0.466
5 | HARA | 0.847 | 0.601 | 0.379 | 0.105 | 0.115 | 0.42 | 0.328 | 0.415 | 0.0749 | 0.106 | 0.311 | 0.344 | 0.204 | 0.225 | 0.308 | 0.131 | 0.0947 | 0.0975 | 0.0847 | 0.106
6 | HCC-15 | 0.526 | 0.3 | 0.185 | 0.0995 | 0.114 | 1.13 | 0.971 | 0.645 | 0.0981 | 0.125 | 0.751 | 0.721 | 0.702 | 0.615 | 0.575 | 0.374 | 0.329 | 0.43 | 0.204 | 0.158
7 | HCC-44 | 0.689 | 0.4 | 0.265 | 0.197 | 0.196 | 1.03 | 0.992 | 0.824 | 0.563 | 0.478 | 0.994 | 0.975 | 1 | 0.859 | 0.89 | 0.942 | 0.877 | 0.88 | 0.983 | 0.897
8 | HCC-78 | 0.91 | 0.537 | 0.767 | 0.158 | 0.117 | 0.665 | 0.754 | 0.981 | 0.265 | 0.251 | 0.446 | 0.495 | 0.491 | 0.464 | 0.433 | 0.527 | 0.54 | 0.401 | 0.386 | 0.405
